Measured values as given in patent US10765661B2, “Method for improving feed digestibility and growth performance” (DSM IP ASSETS B.V., priority 2015, dated 2020).
Where two headings read alike, the source gives them in different places. Marks after values point to notes of the source that are not given here.

Experiments:
[1] = tested on: Male broiler (Ross 308) chicks; type: in vivo; details: main effect mean (factor: Yes)
From the text: The proteolytic enzyme (Ronozyme®ProAct) and Vitamin C (Staye®50) were provided in powder form and a ready to use formulation by DSM Nutritional Products.
Male broiler (Ross 308) chicks were obtained from a local hatchery as day-olds and reared in cage in an environmentally controlled room. On d 0, chicks were individually weighed and 640 birds were allocated on weight basis to 80 cages (8 chicks per cage). The 8 dietary treatments (Table 1) were then randomly assigned to 10 replicate cages each. Experimental diets were fed from 0-21 and 22-35 days.
During week 1, a broiler coccidiosis vaccine (Immucox, Pacificvet, Christchurch, New Zealand) was given via drinking water to all chicks.
The birds received 20-hours of fluorescent illumination and allowed free access to the diets and water. Birds were checked at least three times daily (9.00 am, […]) and any unusual aspect of bird behaviour or condition was recorded. Sick or injured animals were weighed and removed from the study.
The experimental design is a 2×2×2 factorial arrangement of treatments, with two basal control diets (positive control and negative control), two levels of enzyme (with and without) and two levels of vitamin C (with and without).
The two control diets, positive and negative, based on wheat and soybean meal, were mixed for each phase of the study (0-21 and 22-35 d) (Table 2). The PC and NC diets were then used to develop 8 dietary treatments by adding the ProAct enzyme and Vitamin C mixtures. All the diets were fed in pellet form.
Growth performance: Feed and water were available ad libitum during the 35 days experimental period. Body weights and feed intake were recorded on days 7, 14, 21, 28 and 35. Mortality was recorded daily. Feed per gain values were corrected for the body weight of any bird that died or culled during the course of the experiment.
The data were subjected to ANOVA using the General Linear Models procedure of SAS (2004). Significant differences were considered at P<0.05. When a significant F-test was detected, means were separated using the least significant difference test.

Ross 308 male broilers = experiment: Growth performance of broiler chickens fed two proteolytic enzymes supplemented with vitamin C (Example 3); type: in vivo; details: for FCR / FI / WG: NC diet, Vit. C level 300 mg/kg, alone or with the named enzyme (CIBENZA 350 mg/kg, ProAct 200 mg/kg feed)
Protocol: A total of 490 day old Ross 308 male broilers were randomly assigned to 7 treatments (6 experimental groups plus one control group) with 10 replicates of 7 birds per replicate. Six experimental groups with two levels of vitamin C (0 and 300 mg/kg feed) and three enzyme treatments: • no feed enzymes, • Novus CIBENZA (Bacillus licheniformis PWD-1 at levels of 350 mg/kg feed), • DSM RONOZYME® ProAct (at levels of 200 mg/kg feed), in a 2×3 factorial design plus one positive control. The diets of the positive control (PC) were based on wheat and soybean meal and were adequate in all nutrients. The other 6 experimental groups were fed with a negative control (NC) diet based also on wheat and soybean meal but containing less protein (97.5%) and digestible amino acids (95.5%) than the PC. The birds were fed starter (1-14 d) diets during the trial.
The birds were fed the starter (1-14 d) diets ad libitum and had free access to water throughout the trial. RONOZYME® NP (CT) and RONOZYME® WX at levels of 200 and 100 mg/kg feed respectively were included in each diet. […] After mixing, the feed was pelleted at 75-80° C.
All birds were reared in cages in an environmentally controlled room and received 23L:1D of lighting regime during the first week and 20L:4D afterward until the end of the trial. The temperature of the room was maintained at 32±1° C. on the day of arrival and adapted according to the age specific requirements of the chickens.
At d 4, a broiler coccidiosis vaccine (Coccivac B®, MSD, Canada) was given as a mild challenge to all birds via oral administration. Body weights and feed intake were recorded at weekly intervals. Mortality was recorded daily. The weight of the dead animals was used to adjust the feed conversion ratio (FCR) which were calculated by dividing total feed intake by weight gain of live plus weight of dead birds per cage, respectively.

[2] = 1-7 d, main effect mean of the 2x3 factorial (NC diet)
[3] = 1-14 d, main effect mean of the 2x3 factorial (NC diet)

O=C1O[C@H]([C@@H](O)CO)C(O)=C1O [Vitamin C, L-ascorbic acid]
Feed intake, main effect ([1]; 1-21 d post-hatching): 1437 g/bird | Feed/gain, main effect ([1]; 1-21 d post-hatching): 1.43 g/g | Weight gain, main effect ([1]; 1-21 d post-hatching): 1006 g/bird | Feed intake, main effect ([1]; 1-35 d post-hatching): 3809 g/bird | Feed/gain, main effect ([1]; 1-35 d post-hatching): 1.64 g/g | Weight gain, main effect ([1]; 1-35 d post-hatching): 2349 g/bird | FCR (Ross 308 male broilers; 1-7 d): 1.141 | FI (Ross 308 male broilers; 1-7 d): 157 g/bird | WG (Ross 308 male broilers; 1-7 d): 137 g/bird | FCR, main effect (Ross 308 male broilers; [2]): 1.156 | FI, main effect (Ross 308 male broilers; [2]): 161 g/bird | WG, main effect (Ross 308 male broilers; [2]): 140 g/bird | FCR, main effect (Ross 308 male broilers; 1-7 d, main effect mean of the 2x3 factorial (NC diet), listed as Vit. C): 1.156^A | FCR (Ross 308 male broilers; 1-14 d): 1.354^a | FI (Ross 308 male broilers; 1-14 d): 602 g/bird | WG (Ross 308 male broilers; 1-14 d): 445 g/bird | FCR, main effect (Ross 308 male broilers; [3]): 1.440 | FI, main effect (Ross 308 male broilers; [3]): 635 g/bird | WG, main effect (Ross 308 male broilers; [3]): 443 g/bird | FCR, main effect (Ross 308 male broilers; 1-14 d, main effect mean of the 2x3 factorial (NC diet), listed as Vit. C): 1.440^A | FCR, main effect (Ross 308 male broilers; d 1 to d 21, birds fed vitamin C vs. 1.516 without, P=0.080): 1.478
